# Experimental data as given in patent publication EP2348142B1, “Method and composition for removing scale deposits formed on a metal surface within a steam generating system” (Westinghouse Electric Company LLC, priority 2010, dated 2011).
# Like-named read-outs stand apart in the source and are kept apart here.
# Tests used:
# [1] = Example 2; for ratio of dissolved metals (Al, Si and Fe) to base: unadjusted solutions, both stages
# Experimental: Other example embodiments of the present invention were evaluated in laboratory testing using mixtures of 0.02 g of boehmite and 0.02 g of silica sand (B+S), and 0.23 g of magnetite (B+S+M). These mixtures were heated at 80 °C for 1 day, with 40 mL volumes of solutions of 1500 ppm (0.15%) of TMAH in de-ionized water, without pH adjustment, adjusted with boric acid to a room-temperature pH of 11.0, or adjusted with boric acid to a room-temperature pH of 9.0.
# All the solutions were sparged with nitrogen for 15 minutes at the beginning of each experiment.
# After one day (∼ 24 hours), the solutions were removed for analysis of dissolved Al, Si, and Fe. The experiment on the residual solids was continued for an additional 2-day interval using fresh volumes of the original solutions. In addition to the fractions of each oxide dissolved during the experiment, the mole ratios of metals dissolved to base (TMAH or DMA) introduced were also calculated.
# [2] = Example 1; both stages; covers B+S and B+S+M
# Experimental: An example embodiment of the present invention was evaluated in laboratory testing using mixtures of 0.06 g of boehmite and 0.06 g of silica sand (B+S) or of 0.06 g of boehmite, 0.06 g of silica sand, and 0.68 g of magnetite (B+S+M). These mixtures were heated at 80 °C for 1 day, with 40 mL volumes of a solution of 381 ppm (0.0381%) of TMAH in de-ionized water, adjusted with boric acid to a room-temperature pH of 11.0.
# At the end of 1 day, the solutions were removed for analysis of dissolved Al, Si, and Fe, and the experiment on the residual solids was continued for an additional 2-day interval using fresh volumes of the original solutions. In addition to the fractions of each oxide dissolved during the experiment, the mole ratios of metals dissolved to base (TMAH or DMA) introduced were also calculated.
# [3] = Example 3; both stages; covers B+S and B+S+M
# Experimental: Another example embodiment of the present invention was evaluated in laboratory testing using mixtures of 0.06 g of boehmite and 0.06 g of silica sand (B+S) or of 0.06 g of boehmite, 0.06 g of silica sand, and 0.68 g of magnetite (B+S+M). These mixtures were heated at 80 °C for 1 day with 40 mL volumes of a solution of 46 ppm (0.0046%) of TMAH in de-ionized water, having a room-temperature pH of 10.8.
# At the end of 1 day, the solutions were removed and analyzed for dissolved Al, Si, and Fe. The experiment on the residual solids was continued for an additional 2-day interval using fresh volumes of the original solutions. In addition to the fraction of each oxide dissolved during the experiment, the mole ratios of metals dissolved to base (TMAH or DMA) introduced were also calculated.
# [4] = at 25 °C; cited from earlier work
# [5] = Example 4; covers B+S and B+S+M
# Experimental: Another example embodiment of the present invention was evaluated in laboratory testing using mixtures of 0.06 g of boehmite and 0.06 g of silica sand (B+S) or of 0.06 g of boehmite, 0.06 g of silica sand, and 0.68 g of magnetite (B+S+M). These mixtures were heated at 80 °C for 1 day, with 40 mL volumes of a combined solution of 50.8 g/L (5.08%) of TMAH and 10 g•L^-1 (1%) of ethylenediaminetetra-acetic acid (EDTA) in de-ionized water.
# At the end of 1 day, the solutions were removed for analysis of dissolved Al, Si, and Fe. In addition to fractions of each oxide dissolved during the experiment, the mole ratios of the amount of metals dissolved to base (TMAH or DMA) introduced were also calculated.
# [6] = Coupon corrosion test with pre-heated TMAH solutions (Example 9); conditions: 5 wt% TMAH + 1 wt% EDTA
# Experimental: In order to determine the effect of possible thermal degradation of TMAH on its corrosivity towards steel, C1018 carbon steel coupons were tested in three solutions of 5 wt% TMAH + 1 wt% EDTA. […] One of these solutions was not pre-exposed to elevated temperatures. The second solution was exposed to a temperature of 130 ±10 °C for two days before being used in the test. During pre-heating period, the 20-mL Parr bomb in which the solution was heated was almost full, leaving very little vapor space above the solution. The third solution was similarly pre-heated at 130 ±10 °C for two days, but the Parr bomb was only half-full, holding 10 mL of solution and 10 mL of air. The three TMAH solutions were later used in testing of 1018 carbon steel coupons in 40 mL of testing solution for 1 week.
# [7] = cited from earlier work
# [8] = Dissolution of boehmite (Example 5); conditions: 0.03 g boehmite alone
# [9] = Example 11; base raised from 0.15-0.2 wt% to 5 wt%; covers both solids
# Experimental: In order to verify this assumption, solutions of TMAH were compared with those of the similarly strong base choline hydroxide (CholOH). Mixtures of 0.06 g sand + 0.06 g boehmite or 0.06 g sand + 0.06 g boehmite + 0.68 g magnetite were exposed to volumes of 40 mL of several solutions of TMAH or CholOH for 48 hours at a temperature of 80 °C. Each experiment was carried out in duplicate. The spent test solutions were analyzed to determine the concentrations of dissolved Si, Al, and Fe and the percentage of each of the corresponding oxides in the test solutions was calculated.
Structure (SMILES),"ratio of dissolved metals (Al, Si and Fe) to base [1]",ratio of dissolved Al to base [2],ratio of dissolved Al to base [3],ratio of total dissolved metal (predominantly dissolved Al) to introduced base [5],pH [4],extent of dissolution of boehmite increased by a factor [9],also measured
"CNC [DMA, dimethylamine, reference compound]",0.03-0.06,0.06-0.07,0.04-0.10,0.02-0.04,,,pKa [4]: about 10.61
CCCCN [mono-N-butylamine],,,,,10.61,,
"C1=NCCCN2CCCCC12 (stereo not shown) [1,5-diazabicyclo(5,4,0)undec-5-ene]",,,,,13.40,,
"C[N+](C)(C)C.[OH-] [TMAH, Tetramethylammonium hydroxide]",0.09-0.10,0.24-0.29,0.05-0.27,0.15-0.16,,approximately 1.7,"pH of the solution ([6]; after pre-heating in the absence of air): approximately 13.4; pH of the solution ([6]; before pre-heating): approximately 13.0; thermally stable in aqueous solutions up to [7]: 130-135 °C; mole ratios higher by factors, TMAH versus DMA ([1]; pH adjusted solutions): 2-8; dissolution of Al higher by a factor, versus DMA solution [8]: 13; more effective than DMA by a factor (mole ratio calculations) [5]: 4-7"
"C[N+](C)(C)CCO.[OH-] [CholOH, choline hydroxide]",,,,,,approximately 1.7,
